Measurements taken from US9695155B2, “Herbicidal substituted pyrimidinyloxy benzene compounds” (E. I. DU PONT DE NEMOURS AND COMPANY, priority 2013, dated 2017).

Key:
rice = assay: Test B flooded paddy test; type: in vivo, Oryza sativa; conditions: Flood, 250 g ai/ha; 0 to 100 scale where 0 is no effect and 100 is complete control
How it was run: (§1)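 Scores from 0 (no effect) to 100 (complete control) are visual comparisons with controls, taken 13 to 15 days after compound was applied into floodwater 3 cm deep around 2-leaf plants.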

sedge, umbrella = assay: Test B flooded paddy test; type: in vivo, Cyperus difformis; conditions: Flood, 250 g ai/ha; 0 to 100 scale where 0 is no effect and 100 is complete control
How it was run: as §1

giant foxtail [1] = assay: Test A postemergence; type: in vivo, Setaria faberii; conditions: 0 to 100 scale where 0 is no effect and 100 is complete control; for Foxtail, Giant plant response rating: 125 g ai/ha; for Plant response rating, Foxtail, Giant: 500 g ai/ha
How it was run: (§2)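 Compounds in non-phytotoxic solvent with surfactant applied as soil spray preemergence, or postemergence to plants 2-10 cm at one- to two-leaf stage, in loam/sand. After approximately 10 days in greenhouse, injury rated visually versus untreated controls, 0 (no effect) to 100 (complete control).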

morningglory [2] = assay: Test A postemergence; type: in vivo, Ipomoea spp.; conditions: 0 to 100 scale where 0 is no effect and 100 is complete control; for Morningglory plant response rating: 125 g ai/ha; for Plant response rating, Morningglory: 500 g ai/ha
How it was run: as §2

pigweed [3] = assay: Test A preemergence; type: in vivo, Amaranthus retroflexus; conditions: for Pigweed plant response rating (0 to 100 scale): 125 g ai/ha; for Pigweed plant response rating: 500 g ai/ha, 0 to 100 scale where 0 is no effect and 100 is complete control
How it was run: as §2

corn [4] = assay: Test A postemergence; type: in vivo, Zea mays; conditions: 0 to 100 scale where 0 is no effect and 100 is complete control; for Corn plant response rating: 125 g ai/ha; for Plant response rating, Corn: 500 g ai/ha
How it was run: as §2

pigweed [5] = assay: Test A postemergence; type: in vivo, Amaranthus retroflexus; conditions: 0 to 100 scale where 0 is no effect and 100 is complete control; for Pigweed plant response rating: 125 g ai/ha; for Plant response rating, Pigweed: 500 g ai/ha
How it was run: as §2

velvetleaf [6] = assay: Test A preemergence; type: in vivo, Abutilon theophrasti; conditions: for Velvetleaf plant response rating (0 to 100 scale): 125 g ai/ha; for Velvetleaf plant response rating: 500 g ai/ha, 0 to 100 scale where 0 is no effect and 100 is complete control
How it was run: as §2

barnyardgrass [7] = assay: Test A postemergence; type: in vivo, Echinochloa crus-galli; conditions: 0 to 100 scale where 0 is no effect and 100 is complete control; for Barnyardgrass plant response rating: 125 g ai/ha; for Plant response rating, Barnyardgrass: 500 g ai/ha
How it was run: as §2

morningglory [8] = assay: Test A preemergence; type: in vivo, Ipomoea spp.; conditions: for Morningglory plant response rating (0 to 100 scale): 125 g ai/ha; for Morningglory plant response rating: 500 g ai/ha, 0 to 100 scale where 0 is no effect and 100 is complete control
How it was run: as §2

giant foxtail [9] = assay: Test A preemergence; type: in vivo, Setaria faberii; conditions: for Foxtail, Giant plant response rating (0 to 100 scale): 125 g ai/ha; for Foxtail, Giant plant response rating: 500 g ai/ha, 0 to 100 scale where 0 is no effect and 100 is complete control
How it was run: as §2

barnyardgrass [10] = assay: Test A preemergence; type: in vivo, Echinochloa crus-galli; conditions: for Barnyardgrass plant response rating (0 to 100 scale, 0 is no effect, 100 is complete control): 125 g ai/ha; for Barnyardgrass plant response rating: 500 g ai/ha, 0 to 100 scale where 0 is no effect and 100 is complete control
How it was run: as §2

large (Lg) crabgrass [11] = assay: Test A preemergence; type: in vivo, Digitaria sanguinalis; conditions: for Crabgrass, Large plant response rating (0 to 100 scale): 125 g ai/ha; for Crabgrass, Large plant response rating: 500 g ai/ha, 0 to 100 scale where 0 is no effect and 100 is complete control
How it was run: as §2

velvetleaf [12] = assay: Test A postemergence; type: in vivo, Abutilon theophrasti; conditions: 0 to 100 scale where 0 is no effect and 100 is complete control; for Velvetleaf plant response rating: 125 g ai/ha; for Plant response rating, Velvetleaf: 500 g ai/ha
How it was run: as §2

corn [13] = assay: Test A preemergence; type: in vivo, Zea mays; conditions: for Corn plant response rating (0 to 100 scale): 125 g ai/ha; for Corn plant response rating: 500 g ai/ha, 0 to 100 scale where 0 is no effect and 100 is complete control
How it was run: as §2

wheat [14] = assay: Test A preemergence; type: in vivo, Triticum aestivum; conditions: for Wheat plant response rating (0 to 100 scale): 125 g ai/ha; for Wheat plant response rating: 500 g ai/ha, 0 to 100 scale where 0 is no effect and 100 is complete control
How it was run: as §2

barnyardgrass [15] = assay: Test B flooded paddy test; type: in vivo, Echinochloa crus-galli; conditions: Flood, 250 g ai/ha; 0 to 100 scale where 0 is no effect and 100 is complete control
How it was run: as §1

Heteranthera limosa = assay: Test B flooded paddy test; type: in vivo; conditions: Flood, 250 g ai/ha; 0 to 100 scale where 0 is no effect and 100 is complete control
How it was run: as §1

large (Lg) crabgrass [16] = assay: Test A postemergence; type: in vivo, Digitaria sanguinalis; conditions: 0 to 100 scale where 0 is no effect and 100 is complete control; for Crabgrass, Large plant response rating: 125 g ai/ha; for Plant response rating, Crabgrass, Large: 500 g ai/ha
How it was run: as §2

wheat [17] = assay: Test A postemergence; type: in vivo, Triticum aestivum; conditions: 0 to 100 scale where 0 is no effect and 100 is complete control; for Wheat plant response rating: 125 g ai/ha; for Plant response rating, Wheat: 500 g ai/ha
How it was run: as §2

Row | Structure (SMILES) | Plant response rating, Rice (rice) | Plant response rating, Sedge, Umbrella (sedge, umbrella) | Foxtail, Giant plant response rating (giant foxtail [1]) | Plant response rating, Foxtail, Giant (giant foxtail [1]) | Morningglory plant response rating (morningglory [2]) | Plant response rating, Morningglory (morningglory [2]) | Pigweed plant response rating (0 to 100 scale) (pigweed [3]) | Pigweed plant response rating (pigweed [3]) | Corn plant response rating (corn [4]) | Plant response rating, Corn (corn [4]) | Pigweed plant response rating (pigweed [5]) | Plant response rating, Pigweed (pigweed [5]) | Velvetleaf plant response rating (0 to 100 scale) (velvetleaf [6]) | Velvetleaf plant response rating (velvetleaf [6]) | Barnyardgrass plant response rating (barnyardgrass [7]) | Plant response rating, Barnyardgrass (barnyardgrass [7]) | Morningglory plant response rating (0 to 100 scale) (morningglory [8]) | Morningglory plant response rating (morningglory [8]) | Foxtail, Giant plant response rating (0 to 100 scale) (giant foxtail [9]) | Foxtail, Giant plant response rating (giant foxtail [9]) | further results
1 | Clc1cnc(Oc2cccc(Cl)c2-n2cc(Br)cn2)nc1 [Compound 219] | 0 | 85 | 70 | 90 | 70 | 100 | 100 | 100 | 20 | 70 | 100 | 100 | 10 | 20 | 50 | 100 | 0 | 10 | 100 | 100 | Barnyardgrass plant response rating (0 to 100 scale, 0 is no effect, 100 is complete control) (barnyardgrass [10]): 30; Barnyardgrass plant response rating (barnyardgrass [10]): 90; Crabgrass, Large plant response rating (0 to 100 scale) (large (Lg) crabgrass [11]): 100; Crabgrass, Large plant response rating (large (Lg) crabgrass [11]): 100; Velvetleaf plant response rating (velvetleaf [12]): 100; Plant response rating, Velvetleaf (velvetleaf [12]): 100; Corn plant response rating (0 to 100 scale) (corn [13]): 0; Corn plant response rating (corn [13]): 10; Wheat plant response rating (0 to 100 scale) (wheat [14]): 0; Wheat plant response rating (wheat [14]): 0; Plant response rating, Barnyardgrass (barnyardgrass [15]): 0; Plant response rating, Ducksalad (Heteranthera limosa): 100; Crabgrass, Large plant response rating (large (Lg) crabgrass [16]): 90; Plant response rating, Crabgrass, Large (large (Lg) crabgrass [16]): 100; Wheat plant response rating (wheat [17]): 0; Plant response rating, Wheat (wheat [17]): 70
2 | O=[N+]([O-])c1cnc(Oc2ccccc2-n2cc(Br)cn2)nc1 [Compound 225] | 0 | 0 | 0 | 0 | 0 | 0 | 0 | 0 | 0 | 0 | 0 | 0 | 0 | 0 | 0 | 10 | 0 | 0 | 0 | 0 | Barnyardgrass plant response rating (0 to 100 scale, 0 is no effect, 100 is complete control) (barnyardgrass [10]): 0; Barnyardgrass plant response rating (barnyardgrass [10]): 0; Crabgrass, Large plant response rating (0 to 100 scale) (large (Lg) crabgrass [11]): 0; Crabgrass, Large plant response rating (large (Lg) crabgrass [11]): 0; Velvetleaf plant response rating (velvetleaf [12]): 0; Plant response rating, Velvetleaf (velvetleaf [12]): 0; Corn plant response rating (0 to 100 scale) (corn [13]): 0; Corn plant response rating (corn [13]): 0; Wheat plant response rating (0 to 100 scale) (wheat [14]): 0; Wheat plant response rating (wheat [14]): 0; Plant response rating, Barnyardgrass (barnyardgrass [15]): 0; Plant response rating, Ducksalad (Heteranthera limosa): 0; Crabgrass, Large plant response rating (large (Lg) crabgrass [16]): 0; Plant response rating, Crabgrass, Large (large (Lg) crabgrass [16]): 10; Wheat plant response rating (wheat [17]): 0; Plant response rating, Wheat (wheat [17]): 0
